Reference: PMC10388327, “Dual Piperidine-Based Histamine H3 and Sigma-1 Receptor Ligands in the Treatment of Nociceptive and Neuropathic Pain” (Journal of Medicinal Chemistry, 2023)
Counter-ions that a name gives are not always drawn.

What was measured:
sigma-1 receptor (σ1R) [1] = molecular target: T1, sigma-1 receptor (σ1R) (Cavia porcellus, UniProt Q60492); assay: σ1R radioligand binding ([3H](+)-pentazocine); set-up: species or system guinea pig; details: read-out: σ1R Ki [nM] x̄ [CI 95%]; mean [CI 95%]
T1 construct: The thawed membrane preparation of the guinea pig brain cortex was incubated; from tissue; host or cells: male Dunkin-Hartley guinea pig brain cortex membranes
T1 sequence (Q60492 whole entry): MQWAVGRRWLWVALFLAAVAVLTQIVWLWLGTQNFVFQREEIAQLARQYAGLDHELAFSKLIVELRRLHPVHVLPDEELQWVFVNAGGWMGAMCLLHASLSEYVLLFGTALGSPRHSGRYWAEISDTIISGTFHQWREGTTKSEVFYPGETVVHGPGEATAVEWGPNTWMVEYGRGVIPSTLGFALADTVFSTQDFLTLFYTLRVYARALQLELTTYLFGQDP

sigma-1 receptor (σ1R) [2] = assay: σ1R radioligand binding ([3H](+)-pentazocine); set-up: species or system guinea pig; details: ratio of σ2R Ki to σ1R Ki
[3] = molecular target: T2, human histamine H2 receptor (hH2R) (Homo sapiens, UniProt P25021); assay: hH2R radioligand binding ([3H]UR-DE257); details: HEK293T cells; n = 3, triplicate
T2 construct: SP (signal peptide) (N); FLAG (N); expressed in transfected cells
T2 sequence (P25021 whole entry): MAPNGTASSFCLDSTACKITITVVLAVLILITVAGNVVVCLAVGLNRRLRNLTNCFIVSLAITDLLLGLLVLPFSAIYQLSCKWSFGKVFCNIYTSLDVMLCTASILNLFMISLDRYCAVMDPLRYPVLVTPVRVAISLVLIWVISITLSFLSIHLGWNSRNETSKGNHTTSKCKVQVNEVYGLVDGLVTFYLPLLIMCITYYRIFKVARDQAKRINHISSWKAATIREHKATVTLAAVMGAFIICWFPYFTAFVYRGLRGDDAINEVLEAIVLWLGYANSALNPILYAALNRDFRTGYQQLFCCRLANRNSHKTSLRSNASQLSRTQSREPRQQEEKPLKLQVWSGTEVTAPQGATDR
Procedure: To check the selectivity profile of our lead structures, radioligand binding studies at other histamine receptor subtypes were carried out. […] Obtained results clearly indicate the high selectivity of the tested derivatives toward human H3R (Table 3).
Compounds (as oxalate salts) were tested in H3R in vitro binding studies using the methods described previously.[21]−[23] […] Radioligand binding experiments at the H1R, H2R, and H4R were performed as previously described in Rosier et al.[65] and Bartole et al.[66] […] Data represent mean values ± CI from three independent experiments, each performed in triplicate. The normalized competition binding curves were then fitted with a four-parameter logistic fit yielding IC50 values using the Prism 8.4.3 software (GraphPad, San Diego, CA). The Ki values were estimated from the Cheng–Prusoff equation.[69]

CCI-exposed mice = assay: CCI of the sciatic nerve, tail flick test; format: in vivo, male albino Swiss CD-1 mice
Procedure: Behavioral assessment of 12 was performed 14 days after the sciatic nerve injury. Mice were randomly assigned to four treatment groups: vehicle-treated (i.p.) and 12-treated (5, 10, and 15 mg/kg, i.p.). Baseline measurements (basal) for all tests were performed before compound injections, and the results are presented as percentages of the maximal possible effect (% MPE). We observed a significant effect of the tested compound in the von Frey test at all tested time points (30 min: F(3, 26) = 12.38, p < 0,0001; 90 min: F(3, 26) = 12.65, p < 0.0001; 180 min: F(3, 26) = 6.464, p = 0.0020). […] We also observed a significant effect of treatment on the contralateral paw 90 min after injection (F(3, 26) = 5.741, p = 0.0037).
The model of chronic constriction injury (CCI) to the sciatic nerve was established according to Bennett and Xie.[94] The surgical method was performed under isoflurate anesthesia (2% isoflurane in 100% oxygen with a flow of 1.5 L/min).[95] […]
Tail flick latency was measured on the dorsal part of the tail at two-thirds of its length by applying a focused beam of light (thermal stimulus). The time interval between onset of the thermal stimulus and withdrawal of the tail from the beam was recorded; the cutoff latency was 9 s to prevent tissue damage.

Structure (SMILES): N#Cc1ccc(-c2ccc(OCCCN3CCC(c4ccncc4)CC3)cc2)cc1 [Compound 12, 4′-(3-(4-(Pyridin-4-yl)piperidin-1-yl)propoxy)-[1,1′-biphenyl]-4-carbonitrile Oxalate]
- Ki (sigma-1 receptor (σ1R) [1]): 4.5 nM
- σ2/σ1 ratio (sigma-1 receptor (σ1R) [2]): 2.2
- Ki [3]: > 10000 nM
- analgesic effect, tail flick test (CCI-exposed mice; 100 and 190 min after i.p. injection): only the 10 mg/kg dose had significant analgesic effects
- analgesic effect, tail flick test (CCI-exposed mice; 40 min after i.p. injection): significant analgesic action of 12 at 40 min (for doses 5 (p = 0.021) and 10 mg/kg (p < 0.0001))
